From patent US4845194A, “Glycopeptide recovery process” (Eli Lilly and Company, priority 1987, dated 1989)

Legend:
Assay in all cases: In vivo antimicrobial activity in experimentally infected mice (ED50)
[1] = test system: Streptococcus pneumoniae; conditions: for ED50 Value Streptococcus pneumoniae: mg/kg × 2, doses administered subcutaneously to mice 1 and 4 hours postinfection, dose protecting 50% of animals
Experimental: (§1) The A82846 antibiotics have shown in vivo antimicrobial activity against experimentally-induced infections in laboratory animals. When two doses of test compound were administered to mice experimentally infected with the test organism, the activity observed was measured as an ED50 value [effective dose in mg/kg to protect 50% of the test animals: see Warren Wick, et al., J. Bacteriol. 81, 233-235 (1961)].
(§2) ^a mg/kg × 2; doses administered subcutaneously to mice 1 and 4

[2] = test system: Staphylococcus aureus; conditions: for ED50 Value Staphylococcus aureus: mg/kg × 2, doses administered subcutaneously to mice 1 and 4 hours postinfection, dose protecting 50% of animals
Experimental: as §1, §2

[3] = test system: Streptococcus pyogenes; conditions: for ED50 Value Streptococcus pyogenes: mg/kg × 2, doses administered subcutaneously to mice 1 and 4 hours postinfection, dose protecting 50% of animals
Experimental: as §1, §2

CN[C@H](CC(C)C)C(=O)N[C@H]1C(=O)N[C@@H](CC(N)=O)C(=O)N[C@H]2C(=O)N[C@H]3C(=O)N[C@H](C(=O)N[C@@H](C(=O)O)c4cc(O)cc(O)c4-c4cc3ccc4O)[C@H](O[C@@H]3C[C@@](C)(N)[C@H](O)[C@@H](C)O3)c3ccc(cc3)Oc3cc2cc(c3O[C@H]2O[C@@H](CO)[C@H](O)[C@@H](O)[C@@H]2O[C@H]2C[C@](C)(N)[C@@H](O)[C@H](C)O2)Oc2ccc(cc2Cl)[C@H]1O [Compound A82846A]
ED50 Value Streptococcus pneumoniae [1]: 0.17 mg/kg | ED50 Value Staphylococcus aureus [2]: 0.19 mg/kg | ED50 Value Streptococcus pyogenes [3]: 0.19 mg/kg

CN[C@@H](CC(C)C)C(=O)N[C@H]1C(=O)N[C@H](CC(N)=O)C(=O)N[C@H]2C(=O)N[C@H]3C(=O)N[C@@H](C(=O)NC(C(=O)O)c4cc(O)cc(O)c4-c4cc3ccc4O)[C@@H](O[C@H]3C[C@](C)(N)[C@H](O)[C@@H](C)O3)c3ccc(cc3)Oc3cc2cc(c3O[C@H]2O[C@@H](CO)[C@@H](O)[C@H](O)[C@@H]2O[C@H]2C[C@](C)(N)[C@H](O)[C@@H](C)O2)Oc2ccc(cc2)[C@@H]1O (stereo partly drawn) [Compound A82846C]
ED50 Value Streptococcus pneumoniae [1]: 5.87 mg/kg | ED50 Value Staphylococcus aureus [2]: 2.18 mg/kg | ED50 Value Streptococcus pyogenes [3]: 2.71 mg/kg

CN[C@H](CC(C)C)C(=O)N[C@H]1C(=O)N[C@@H](CC(N)=O)C(=O)N[C@H]2C(=O)N[C@H]3C(=O)N[C@H](C(=O)N[C@H](C(=O)O)c4cc(O)cc(O)c4-c4cc3ccc4O)[C@H](O)c3ccc(c(Cl)c3)Oc3cc2cc(c3O[C@@H]2O[C@H](CO)[C@@H](O)[C@H](O)[C@H]2O[C@H]2C[C@](C)(N)[C@H](O)[C@H](C)O2)Oc2ccc(cc2Cl)[C@H]1O [Vancomycin, vancomycin, reference compound]
ED50 ([1]; Streptococcus pneumoniae, sc, read-out: ED50 Value Streptococcus pneumoniae): 1.52 mg/kg | ED50 ([2]; Staphylococcus aureus, sc, read-out: ED50 Value Staphylococcus aureus): 1.3 mg/kg | ED50 ([3]; Streptococcus pyogenes, sc, read-out: ED50 Value Streptococcus pyogenes): 0.72 mg/kg

CN[C@H](CC(C)C)C(=O)N[C@H]1C(=O)N[C@@H](CC(N)=O)C(=O)N[C@H]2C(=O)N[C@H]3C(=O)N[C@H](C(=O)N[C@H](C(=O)O)c4cc(O)cc(O)c4-c4cc3ccc4O)[C@H](O[C@H]3C[C@](C)(N)[C@@H](O)[C@H](C)O3)c3ccc(c(Cl)c3)Oc3cc2cc(c3O[C@@H]2O[C@H](CO)[C@@H](O)[C@H](O)[C@H]2O[C@H]2C[C@](C)(N)[C@@H](O)[C@H](C)O2)Oc2ccc(cc2Cl)[C@H]1O [Compound A82846B]
ED50 Value Streptococcus pneumoniae [1]: 0.18 mg/kg | ED50 Value Staphylococcus aureus [2]: 0.19 mg/kg | ED50 Value Streptococcus pyogenes [3]: 0.20 mg/kg
